# In ChEMBL document CHEMBL6127026, “Design, synthesis and anti-HBV activity study of novel HBV capsid assembly modulators” (Bioorg Med Chem Lett, 2024):
# Experiments:
# Hepatitis B virus = assay: Antiviral activity against Hepatitis B virus infected in human HePAD38 cells assessed as inhibition of viral DNA replication by qPCR analysis; format: functional, organism-based
# [1] = Cytotoxicity against human HePAD38 cells by CCK8 assay; format: toxicity, cell-based
# [2] = Selectivity index, ratio of CC50 for human HePAD38 cells to EC50 for hepatitis B virus infected in HePAD38 cells; format: toxicity, cell-based; conditions: read-out: Ratio CC50/EC50
# [3] = Cmax in male Beagle dog at 1.5 mg/kg, po administered via gavage and measured after 24 hrs by LC-MS/MS analysis; format: ADME, organism-based, Canis lupus familiaris; conditions: in vivo
# [4] = AUC (0 to infinity) in male Beagle dog at 1.5 mg/kg, po administered via gavage and measured after 24 hrs by LC-MS/MS analysis; format: ADME, organism-based, Canis lupus familiaris; conditions: in vivo
# [5] = Octanol/water partition coefficient, log P of the compound; format: physicochemical
# Core antigen = Core antigen (Hepatitis B virus, UniProt Q03732); assay: Inhibition of Hepatitis B virus Capsid protein assembly activity by fluorescence based analysis
# Chain of Core antigen (Q03732 whole entry): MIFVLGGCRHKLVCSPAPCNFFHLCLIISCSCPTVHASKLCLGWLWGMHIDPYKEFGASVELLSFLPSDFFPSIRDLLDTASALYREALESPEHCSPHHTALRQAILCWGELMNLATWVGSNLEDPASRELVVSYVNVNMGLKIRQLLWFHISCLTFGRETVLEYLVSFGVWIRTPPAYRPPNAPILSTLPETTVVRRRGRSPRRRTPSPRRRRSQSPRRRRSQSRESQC
# [6] = Metabolic stability in human liver microsomes assessed as half-life; format: ADME, Microsome
# [7] = Metabolic stability in human liver microsomes assessed as parent compound remaining measured after 60 mins in presence of NADPH co-factor; format: ADME, Microsome; conditions: read-out: Stability
# [8] = Metabolic stability in human liver microsomes assessed as parent compound remaining measured after 60 mins in absence of NADPH co-factor; format: ADME, Microsome; conditions: read-out: Stability
# [9] = Metabolic stability in human liver microsomes assessed as intrinsic clearance; format: ADME, Microsome; conditions: read-out: CLH
# [10] = Metabolic stability in human liver assessed as intrinsic clearance; format: ADME, tissue-based; conditions: read-out: CLH
# [11] = Metabolic stability in human plasma assessed as half-life; format: ADME, cell-free
# [12] = Metabolic stability in human plasma assessed as parent compound remaining measured immediately; format: ADME, cell-free; conditions: read-out: Stability
# [13] = Metabolic stability in human plasma assessed as parent compound remaining measured after 10 mins; format: ADME, cell-free; conditions: read-out: Stability
# [14] = Metabolic stability in human plasma assessed as parent compound remaining measured after 30 mins; format: ADME, cell-free; conditions: read-out: Stability
# [15] = Metabolic stability in human plasma assessed as parent compound remaining measured after 60 mins; format: ADME, cell-free; conditions: read-out: Stability
# [16] = Metabolic stability in human plasma assessed as parent compound remaining measured after 120 mins; format: ADME, cell-free; conditions: read-out: Stability
EC50 (Hepatitis B virus) [µM],SMILES,CC50 [1] [µM],selectivity ratio [2],also measured
4.56,O=C(Nc1ccc(F)c(Cl)c1)c1cc2c(c(S(=O)(=O)Nc3ccc(F)c(Cl)c3)c1)OCCO2,6.64,1.46,–
0.91,O=C(Nc1ccc(F)c(F)c1)c1cc(S(=O)(=O)NC2CCCC2)cc2c1OCCO2,81.4,89,–
1.53,N#Cc1cc(NC(=O)c2cc(S(=O)(=O)NC3CCCC3)cc3c2OCCO3)ccc1F,> 100,> 65.3,–
1.07,O=C(NC1CCCC1)c1cc(S(=O)(=O)Nc2ccc(F)c(Cl)c2)cc2c1OCCO2,> 100,> 93,–
0.29,O=C(Nc1cc(F)c(F)c(F)c1)c1ccc(F)c(S(=O)(=O)N2CCC(O)CC2)c1,20.8,88.4,Cmax [3]: 560 ng/mL; AUC(0-inf) [4]: 3500 ng·h/mL; logP [5]: 1.75
7.36,O=C(NC1CCCC1)c1cc2c(c(S(=O)(=O)Nc3cc(F)c(F)c(F)c3)c1)OCCO2,20.5,2.79,–
> 20,O=C(Nc1ccc(F)c(Cl)c1)c1cc(S(=O)(=O)Nc2nccs2)cc2c1OCCO2,> 100,–,–
–,O=C(O)Cc1ccccc1Nc1c(Cl)cccc1Cl [DICLOFENAC],–,–,CLint scaled [10]: 232 mL/min/kg
> 20,O=C(NC1CCCC1)c1cc2c(c(S(=O)(=O)Nc3ccc(F)c(Cl)c3)c1)OCCO2,> 100,–,–
> 20,O=C(NC1CCCC1)c1cc(S(=O)(=O)NC2CCCC2)cc2c1OCCO2,> 100,–,–
0.49,Cc1cc(NC(=O)c2cc(S(=O)(=O)NC3CCCC3)cc3c2OCCO3)ccc1F,51,104,–
> 20,O=C(NC1CCCC1)c1cc(S(=O)(=O)Nc2cc(F)c(F)c(F)c2)cc2c1OCCO2,> 100,–,–
–,CC(C)[N+](C)(CCOC(=O)C1c2ccccc2Oc2ccccc21)C(C)C.[Br-] [PROPANTHELINE BROMIDE],–,–,half-life [11]: 7.4 min; remaining at 10 min [13]: 52%; remaining at 0.5 h [14]: 8.3%; remaining at 1 h [15]: 0.4%
1,O=C(Nc1ccc(F)cc1)c1cc(S(=O)(=O)NC2CCCC2)cc2c1OCCO2,> 100,> 98.2,–
0.86,O=C(Nc1ccc(F)c(Cl)c1)c1cc(S(=O)(=O)Nc2ccsc2)cc2c1OCCO2,> 100,> 116,–
0.43,O=C(Nc1cc(F)cc(F)c1)c1cc(S(=O)(=O)NC2CCCC2)cc2c1OCCO2,> 100,> 232,–
> 20,O=C(c1cc(S(=O)(=O)NC2CCCC2)cc2c1OCCO2)N1CCC(O)CC1,> 100,–,–

SMILES,EC50 (Hepatitis B virus) [µM],CC50 [1] [µM],selectivity ratio [2],also measured
O=C(Nc1cc(F)c(F)c(F)c1)c1cc(S(=O)(=O)NC2CCCC2)cc2c1OCCO2,0.24,> 100,> 419,IC50 (Core antigen): 1.45 µM; logP ([5]; read-out: logP): 1.59; half-life [6]: 13.9 min; remaining at 1 h [7]: 5%; remaining at 1 h [8]: 84.1%; microsomal CLint [9]: 99.8 µL/min/mg; CLint scaled [10]: 89.8 mL/min/kg; half-life [11]: > 289 min; remaining at 0 min [12]: 100%; remaining at 10 min [13]: 115%; remaining at 0.5 h [14]: 112%; remaining at 1 h [15]: 115%; remaining at 2 h [16]: 99.4%
O=C(Nc1ccc(F)c(Cl)c1)c1cc(S(=O)(=O)NC2CCCC2)cc2c1OCCO2,0.5,48.2,95.5,IC50 (Core antigen): 4.22 µM
